This is an account of results in ChEMBL document CHEMBL1131589 (J Med Chem, 1998).

SMILES strings stand for the structures.

In this assay the target is Cannabinoid receptor 1 (Rattus norvegicus, UniProt P20272). The assay can be described thus: Displacement of [3H]CP-55940 binding to Cannabinoid receptor 1 in rat brain membranes. The class given is cell membranes.
Sequence of Cannabinoid receptor 1 (P20272 whole entry): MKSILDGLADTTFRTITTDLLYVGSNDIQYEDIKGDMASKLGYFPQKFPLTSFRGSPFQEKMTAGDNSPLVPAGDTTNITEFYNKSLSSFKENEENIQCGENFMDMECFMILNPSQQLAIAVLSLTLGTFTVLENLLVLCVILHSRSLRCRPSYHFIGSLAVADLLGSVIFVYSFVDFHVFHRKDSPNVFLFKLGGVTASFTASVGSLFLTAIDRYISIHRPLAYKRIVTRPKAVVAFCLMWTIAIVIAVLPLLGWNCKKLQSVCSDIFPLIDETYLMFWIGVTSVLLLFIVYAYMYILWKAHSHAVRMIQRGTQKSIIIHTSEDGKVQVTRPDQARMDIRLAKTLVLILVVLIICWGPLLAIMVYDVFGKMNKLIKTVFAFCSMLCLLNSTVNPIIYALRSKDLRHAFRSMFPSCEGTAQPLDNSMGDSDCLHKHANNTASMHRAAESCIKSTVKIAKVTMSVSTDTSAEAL
In the case of `CCCCCCC(C)(C)c1ccc([C@H]2C[C@@H](O)C[C@H]3CC[C@@H](CO)C[C@@H]32)c(O)c1`, the inhibitory constant (Ki) was 0.11 nM.
To `CCCCCCC(C)(C)c1cc(O)c2c(c1)OC(C)(C)[C@@H]1CC=C(CO)C[C@@H]21` belongs 0.23 nM; to `CCCCCCC(C)(C)c1cc(O)c2c(c1)OC(C)(C)[C@H]1CC=C(CO)C[C@H]21` [DEXANABINOL], 360 nM.
